These results are taken from patent US4372975A, “Substituted 2-benzoyl-4-chloroglycinanilide derivatives, a process for their production, and their use as medicaments” (Pierre Fabre SA, priority 1977, dated 1983).

As a reminder, the solubility is the dissolved amount per volume that the medium holds. Read a high solubility as much dissolved substance.

The test system of data set [1] is pentamethylene tetrazole-induced tonic spasms. The data set can be described thus: Anti-pentamethylene tetrazole activity. Format: in vivo, male mice of the Swiss strain. Particulars: for Activity antipentetrazol (VO), at 10 mg: 10 mg (mg/kg); for ED50: Mus musculus. As for the experimental part: This test is carried out on a group of 10 male mice of the Swiss strain. 15 minutes after the subcutaneous injection of 125 mg/kg of pentamethylene tetrazole, the mice have tonic spasms of which the outcome is fatal.
For the test, the compound is administered orally 60 minutes before the injection of pentamethylene tetrazole. The animals are observed for 2 hours after administration of the pentamethylene tetrazole. In some particular cases, the tests were confirmed by intraperitoneal administration. The results are expressed by the effective dose DE50 (Goodman et Col.--J. Pharmacol. 108, 1953).
As Japanese Pat. No. 148,340 has been cited in copending application Ser. No. 916,651, filed June 19, 1978, comparisons between compounds of this closest prior art and the compounds of the invention were undertaken in the form of a controlled study.
The major consideration surrounded the similarity in the compounds, particularly in the substitution at the R position. The study compared ten compounds of the invention, which differed from the Japanese prior art only in that the compounds of the invention are alkylated at the R position while the prior art compounds are all hydrogenated at that position.
The compounds were tested for anti-pentamethylene tetrazole activity, the test described on p.

Another data set is described as follows: Solubility. The settings on record: for solubility in ethanol: in ethanol at 95° GL; for solubility in water (in words) / solubility: in water. It counts as physicochemical.
A short description of data set [2]: Toxicity test (LD50, Miller and Tainter). The settings on record: mouse, in vivo, mice. As for the experimental part:
The compounds according to the invention were subjected to toxicity tests. It was tested in batches of 10 mice by oral, intraperitoneal and, in some cases, intravenous administration and was calculated in accordance with Miller and Tainter's method (Proc. Soc. exper. Biol. Med., 1944, 57, 261).

The mark [3] stands for this setting: ip, intraperitoneal, read-out: DL50 I.P.
Setting [4] is: oral, 60 min before 125 mg/kg s.c. pentamethylene tetrazole, male Swiss mice, read-out: anti-pentamethylene tetrazole activity DE50 P.O.
[5] abbreviates: po, prior art comparison, VO, dose giving 50% inhibition, read-out: Activity antipentetrazol (VO), 50% inhibition.

Structures can show the parent of a compound that is named as a salt. Where two headings read alike, the source gives them in different places.

Consider `C#CC(C)(C)NCC(=O)Nc1ccc(Cl)cc1C(=O)c1ccccc1` [reference compound], for which, in data set [1] (prior art comparison, VO), the “Activity antipentetrazol (VO), at 10 mg” value is “inactive”.

For `CN(C(=O)CNC(C)(C)CO)c1ccc(Cl)cc1C(=O)c1ccccc1` [Example 12, N-Methyl-N'-(1',1'-dimethyl-2'-hydroxyethyl)-(2-benzoyl-4-chloro)-glycinanilide], in the data set “Solubility”, the “solubility in dimethyl formamide” value stood at 25%, the solubility in ethanol is 10% and the “solubility in water (in words)” value is reported as “insoluble”.

Turning to `CN(C(=O)CN(C)C1CCCCC1)c1ccc(Cl)cc1C(=O)c1ccccc1` [Example 20, N,N'-Dimethyl-N'-cyclohexyl-(2-benzoyl-4-chloro)-glycinanilide hydrochloride], the LD50 in data set [2] (setting [3]) is over 500 mg/kg; in data set [2] (oral, read-out: DL50 oral), over 1000 mg/kg. Further, in data set [1] (setting [4]), the ED50 was 1.9 mg/kg. In “Solubility”, the solubility came out at 20 mg/mL.

As for `C#CC(C)(C)NCC(=O)N(C)c1ccc(Cl)cc1C(=O)c1ccccc1` [drawing 31], the ED50 in data set [1] (setting [5]) is 2.3 mg/kg.

Regarding `C#CC(CC)(CC)NCC(=O)N(C)c1ccc(Cl)cc1C(=O)c1ccccc1` [Example 8, N-Methyl-N'-(1',1'-diethyl-propargyl)-(2-benzoyl-4-chloro)-glycinanilide hydrochloride], the LD50 in data set [2] (setting [3]) was 400 mg/kg. In addition, the LD50 in data set [2] (oral, read-out: DL50 oral) amounted to 1000 mg/kg. Besides, the ED50 in data set [1] (setting [4]) was determined as 4.1 mg/kg. Moreover, in “Solubility”, the “solubility in dimethyl formamide” value amounted to 1%, the solubility in ethanol is listed as 1% and the “solubility in water (in words)” value is listed as “insoluble”.

On to `CNC1=Nc2ccc(Cl)cc2C(c2ccccc2)=[N+]([O-])C1` [chlordiazepoxide, reference compound], for which the ED50 in data set [1] (setting [4]) amounted to 5 mg/kg.

Take `CCC(CO)(CO)NCC(=O)N(C)c1ccc(Cl)cc1C(=O)c1ccccc1` [Example 13, N-Methyl-N'-(1'-ethyl-1'-hydroxymethyl-2'-hydroxyethyl)-(2-benzoyl-4-chloro)-glycinanilide hydrochloride]: the solubility in the data set “Solubility” is 500 mg/mL.

`CN(C(=O)CNC1CC1)c1ccc(Cl)cc1C(=O)c1ccccc1` [Example 10, N-Methyl-N'-cyclopropyl-(2-benzoyl-4-chloro)-glycinanilide hydrochloride]: the ED50 in data set [1] (setting [4]) was found to be 0.8 mg/kg. Further, the solubility in “Solubility” turned out to be 13 mg/mL.

For the compound `CN1CCN(CC(=O)N(C)c2ccc(Cl)cc2C(=O)c2ccccc2)CC1` [Example 22, N-Methyl-4'-methyl-2-piperazino-(2-benzoyl-4-chloro)-acetanilide], the LD50 in data set [2] (setting [3]) is 500 mg/kg. Moreover, the LD50 in data set [2] (oral, read-out: DL50 oral) came to 1000 mg/kg. In “Solubility”, the “solubility in dimethyl formamide” value came out at 5%, the solubility in ethanol was 5% and the “solubility in water (in words)” value is given as “insoluble”.

As to `C=CCNCC(=O)Nc1ccc(Cl)cc1C(=O)c1ccccc1` [R = H, R1 = H, R2 = CH2CHCH2, reference compound], the “Activity antipentetrazol (VO), at 10 mg” value in data set [1] (prior art comparison, VO) is “inactive”.

Turning to `O=C(CNCc1ccccc1)Nc1ccc(Cl)cc1C(=O)c1ccccc1` [reference compound], in data set [1] (prior art comparison, VO), the “Activity antipentetrazol (VO), at 10 mg” value was “inactive”.

On to `C#CC1(NCC(=O)N(C)c2ccc(Cl)cc2C(=O)c2ccccc2)CCCCC1` [Example 9, N-Methyl-N'-(1'-ethinyl-cyclohexyl)-(2-benzoyl-4-chloro)-glycinanilide hydrochloride], for which the LD50 in data set [2] (setting [3]) came to 200 mg/kg. For the same compound, the LD50 in data set [2] (oral, read-out: DL50 oral) was 560 mg/kg. In data set [1] (setting [4]), the ED50 is 3.9 mg/kg. Also, in “Solubility”, the “solubility in dimethyl formamide” value came to 2%, the solubility in ethanol worked out at 3% and the “solubility in water (in words)” value was “insoluble”.

As to `CN(C)CC(=O)Nc1ccc(Cl)cc1C(=O)c1ccccc1` [R = H, R1 = CH3, R2 = CH3, reference compound], in data set [1] (prior art comparison, VO), the “Activity antipentetrazol (VO), at 10 mg” value is “inactive”.

For `CN(C(=O)CNCc1ccccc1)c1ccc(Cl)cc1C(=O)c1ccccc1` [Example 6, N-Methyl-N'-benzyl-(2-benzoyl-4-chloro)-glycinanilide hydrochloride], the solubility in the data set “Solubility” was determined as 25 mg/mL.

For the compound `CC(CNCC(=O)Nc1ccc(Cl)cc1C(=O)c1ccccc1)c1ccccc1` (centres unmarked) [reference compound], the “Activity antipentetrazol (VO), at 10 mg” value in data set [1] (prior art comparison, VO) was “inactive”.

On to `CNCC(=O)Nc1ccc(Cl)cc1C(=O)c1ccccc1` [R = H, R1 = H, R2 = CH3, reference compound], for which, in data set [1] (prior art comparison, VO), the “Activity antipentetrazol (VO), at 10 mg” value was “inactive”.

On to `CN(C)CC(=O)N(C)c1ccc(Cl)cc1C(=O)c1ccccc1` [Example 4, N,N',N'-Trimethyl-(2-benzoyl-4-chloro)-glycinanilide], for which, in data set [1] (setting [5]), the ED50 stood at 1.7 mg/kg. In the data set “Solubility”, the “solubility in dimethyl formamide” value is given as 20%, the solubility in ethanol is listed as 20% and the “solubility in water (in words)” value is “insoluble”.

As for `C=CCNCC(=O)N(C)c1ccc(Cl)cc1C(=O)c1ccccc1` [Example 7, N-methyl-N'-allyl-(2-benzoyl-4-chloro)-glycinanilide hydrochloride], the LD50 in data set [2] (setting [3]) was 500 mg/kg; in data set [2] (oral, read-out: DL50 oral) it was over 1000 mg/kg. Moreover, the ED50 in data set [1] (setting [4]) was 1.9 mg/kg. In “Solubility”, this compound yielded a solubility of 30 mg/mL.

Take `CN(C(=O)CN1CCCCC1)c1ccc(Cl)cc1C(=O)c1ccccc1` [Example 17, N-Methyl-2-piperidino-(2'-benzoyl-4'-chloro)-acetanilide hydrochloride]: the solubility in “Solubility” was 500 mg/mL.

For `COCCNCC(=O)N(C)c1ccc(Cl)cc1C(=O)c1ccccc1` [Example 5, N-Methyl-N'-(2'-methoxyethyl)-(2-benzoyl-4-chloro)-glycinanilide hydrochloride], the LD50 in data set [2] (setting [3]) amounted to 300 mg/kg; in data set [2] (oral, read-out: DL50 oral), 750 mg/kg. For the same compound, the ED50 in data set [1] (setting [4]) is 2.6 mg/kg. In “Solubility”, this compound showed a solubility of 500 mg/mL.

In the case of `CNCC(=O)N(C)c1ccc(Cl)cc1C(=O)c1ccccc1` [Example 3, N,N'-Dimethyl-(2-benzoyl-4-chloro)-glycinanilide hydrochloride], the ED50 in data set [1] (setting [5]) turned out to be 1.7 mg/kg. Further, the solubility in “Solubility” worked out at 150 mg/mL.

In the case of `CN1C(=O)CN=C(c2ccccc2)c2cc(Cl)ccc21` [diazepam, reference compound], the ED50 in data set [1] (setting [4]) was 1 mg/kg.

For `CN(C(=O)Cn1ccnc1)c1ccc(Cl)cc1C(=O)c1ccccc1` [Example 23, N-Methyl-2-imidazolyl-(2-benzoyl-4-chloro)-acetanilide], in data set [2] (setting [3]), the LD50 was 500 mg/kg. Also, the LD50 in data set [2] (oral, read-out: DL50 oral) was found to be 1000 mg/kg. Besides, in the data set “Solubility”, the “solubility in dimethyl formamide” value is on record as 20%, the solubility in ethanol is on record as 10% and the “solubility in water (in words)” value is reported as “insoluble”.

As for `COCCNCC(=O)Nc1ccc(Cl)cc1C(=O)c1ccccc1` [R = H, R1 = H, R2 = CH2CH2OCH3, reference compound], the “Activity antipentetrazol (VO), at 10 mg” value in data set [1] (prior art comparison, VO) is “inactive”.

With `CN(C(=O)CNCc1ccccc1)c1ccc(Cl)cc1C(=O)c1ccccc1` [drawing 35], the ED50 in data set [1] (setting [5]) came to 3 mg/kg.

Consider `CC(CNCC(=O)N(C)c1ccc(Cl)cc1C(=O)c1ccccc1)c1ccccc1` (centres unmarked), for which, in data set [1] (setting [5]), the ED50 turned out to be 2.9 mg/kg.

Take `CN(CCO)CC(=O)Nc1ccc(Cl)cc1C(=O)c1ccccc1` [R = H, R1 = CH3, R2 = CH2CH2 OH, reference compound]: the “Activity antipentetrazol (VO), at 10 mg” value in data set [1] (prior art comparison, VO) is “inactive”.

With `CC(C)NCC(=O)N(C)c1ccc(Cl)cc1C(=O)c1ccccc1` [Example 1, N-Isopropyl-N'-methyl-(2-benzoyl-4-chloro)-glycinanilide hydrochloride], in the data set “Solubility”, the solubility is 10 mg/mL.
